# Measurements published in EPA's ToxValDB 9.5 (doi:10.2903/j.efsa.2006.68r).
# Legend:
# Apis mellifera = conditions: acute, mortality
# Oryctolagus sp. = conditions: reproduction developmental; clinical signs
# Bibionidae = conditions: chronic/long-term; duration: 28 days
# Rattus norvegicus = conditions: for NOAEL: neurology
# Daphnia magna = conditions: chronic/long-term; duration: 21 days
# Aphidius rhopalosiphi = experiment: LR50; higher = less toxic; conditions: not reported; mortality
# Typhlodromus pyri = experiment: LR50; higher = less toxic; conditions: not reported; mortality
smiles,measurement,setting,value
CCOP(=O)(SC(C)CC)SC(C)CC (configuration not stated) [Cadusafos],LD50,Apis mellifera; dermal,1.8 µg/piece
same,LD50,"Apis mellifera; oral, unspecified",2.07 µg/piece
same,NOAEL,Oryctolagus sp.,0.3 mg/kg-day
same,NOEC,Bibionidae,32 µg/kg
same,LC50,"Pontoscolex corethrurus; acute, mortality",12.5 mg/kg
same,NOEC,"Pontoscolex corethrurus; chronic/long-term, reproduction",1.8 mg/kg
same,LC50,"Oncorhynchus mykiss; acute, duration: 96 hours, mortality",130 µg/mL
same,NOEC,"Oncorhynchus mykiss; chronic/long-term, duration: 95 days",5.22 mg/L
same,LC50,"Colinus virginianus; acute, oral, diet, mortality",10.8 mg/kg-day
same,LD50,"Colinus virginianus; acute, oral, mortality",16.1 mg/kg-day
same,NOEL,Colinus virginianus; reproduction developmental,≥ 1.1 mg/kg-day
same,LD50,"Rattus norvegicus; acute, oral, mortality",37.1 mg/kg
same,NOAEL,"Rattus norvegicus; chronic, duration: 2 years, F",0.045 mg/kg-day
same,NOAEL,"Rattus norvegicus; subchronic, duration: 90 days, oral, diet",0.067 mg/kg-day
same,NOEC,Daphnia magna,0.231 mg/L
same,LR50,Aphidius rhopalosiphi,3.75 g/ha
same,LR50,Typhlodromus pyri,44.4 g/ha
